Assay results from PubChem BioAssay AID1195 (EPA DSSTox, 2008).

Test system: human maximum recommended daily dose, FDA database
Assay: DSSTox (FDAMDD) FDA Maximum (Recommended) Daily Dose Database
Conditions: active compounds read low
Outline: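 MRDD values come from clinical trials with daily oral dosing, usually for 3–12 months, for the average adult, in mg/day converted to mg/kg-bw/day assuming 60 kg. Antineoplastic mg/m2 doses are divided by 37. Activity score maps log10(1/MRDD mmol) onto 1–100.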

[1] = TherapeuticCategory: diagnostic aid
[2] = TherapeuticCategory: antineoplastic
[3] = TherapeuticCategory: antihypertensive, antianginal
[4] = TherapeuticCategory: antipsychotic
[5] = TherapeuticCategory: antibacterial
[6] = TherapeuticCategory: glucocorticoid

SMILES: COCC(=O)Nc1c(I)c(C(=O)NCC(O)CO)c(I)c(C(=O)N(C)CC(O)CO)c1I (configuration not stated)
- maximum recommended daily dose (mmol/kg-bw/day) [1]: 0.126

SMILES: C[C@]1(O)CC[C@H]2[C@@H]3CCC4=CC(=O)CC[C@@H]4[C@H]3CC[C@@]21C
- maximum recommended daily dose (mmol/kg-bw/day) (TherapeuticCategory: androgen): 0.00173

SMILES: COc1ccccc1O
- maximum recommended daily dose (mmol/kg-bw/day) (TherapeuticCategory: expectorant): 0.0902

SMILES: Cc1c(C)c2c(c(C)c1O)CCC(C)(COc1ccc(CC3SC(=O)NC3=O)cc1)O2 (configuration not stated)
- maximum recommended daily dose (mmol/kg-bw/day) (TherapeuticCategory: antidiabetic): 0.0226

SMILES: CCCCC(=O)O[C@H]1CC[C@H]2[C@@H]3CCc4cc(O)ccc4[C@H]3CC[C@]12C
- maximum recommended daily dose (mmol/kg-bw/day) (TherapeuticCategory: estrogen): 0.0014

SMILES: CCOC(=O)n1ccn(C)c1=S
- maximum recommended daily dose (mmol/kg-bw/day) (TherapeuticCategory: thyroid inhibitor): 0.00537

SMILES: CN(C)/N=N/c1nc[nH]c1C(N)=O
- maximum recommended daily dose (mmol/kg-bw/day) [2]: 0.0247

SMILES: COC(=O)C1=C(C)NC(C)=C(C(=O)OCC(C)C)C1c1ccccc1[N+](=O)[O-] (configuration not stated)
- maximum recommended daily dose (mmol/kg-bw/day) [3]: 0.00172

SMILES: CC(=O)O[C@H]1C[C@@H]2CC[C@@H]3[C@H](CC[C@@]4(C)[C@H]3C[C@H]([N+]3(C)CCCCC3)[C@@H]4OC(C)=O)[C@@]2(C)C[C@@H]1[N+]1(C)CCCCC1
- maximum recommended daily dose (mmol/kg-bw/day) (TherapeuticCategory: skeletal muscle relaxant): 0.000136

SMILES: O=C1CN=C(c2ccccc2)c2cc([N+](=O)[O-])ccc2N1
- maximum recommended daily dose (mmol/kg-bw/day) (TherapeuticCategory: anticonvulsant, hypnotic): 0.00118

SMILES: NCCCC(O)(P(=O)(O)O)P(=O)(O)O
- maximum recommended daily dose (mmol/kg-bw/day) (TherapeuticCategory: antiosteoporotic): 0.00268

SMILES: CN(C)CCCN1c2ccccc2Sc2ccc(C(F)(F)F)cc21
- maximum recommended daily dose (mmol/kg-bw/day) [4]: 0.00709

SMILES: C=CCC1(CC(C)C)C(=O)NC(=O)NC1=O
- maximum recommended daily dose (mmol/kg-bw/day) (TherapeuticCategory: sedative, hypnotic): 0.0223

SMILES: Cc1c(C(C)C)c(=O)n(-c2ccccc2)n1C
- maximum recommended daily dose (mmol/kg-bw/day) (TherapeuticCategory: analgesic, antipyretic, antiphlogistic): 0.13

SMILES: CC[C@@H](CO)NCCN[C@@H](CC)CO
- maximum recommended daily dose (mmol/kg-bw/day) [5]: 0.122

SMILES: O=C1CC2(CCCC2)CC(=O)N1CCCCN1CCN(c2ncccn2)CC1
- maximum recommended daily dose (mmol/kg-bw/day) (TherapeuticCategory: anxiolytic): 0.00259

SMILES: CC(=O)OCC(=O)[C@@]1(O)CC[C@H]2[C@@H]3C[C@H](C)C4=CC(=O)C=C[C@]4(C)[C@H]3[C@@H](O)C[C@@]21C
- maximum recommended daily dose (mmol/kg-bw/day) [6]: 0.01

SMILES: CCCCC1C(=O)N(c2ccccc2)N(c2ccccc2)C1=O
- maximum recommended daily dose (mmol/kg-bw/day) (TherapeuticCategory: anti inflammatory): 0.0324

SMILES: COc1ccc(CCN2CCC(Nc3nc4ccccc4n3Cc3ccc(F)cc3)CC2)cc1
- maximum recommended daily dose (mmol/kg-bw/day) (TherapeuticCategory: antiallergic, antiarrhythmic): 0.000364

SMILES: CO/N=C(\C(=O)N[C@@H]1C(=O)N2C(C(=O)O)=C(CSc3nnnn3C)CS[C@H]12)c1csc(N)n1
- maximum recommended daily dose (mmol/kg-bw/day) [5]: 0.13

SMILES: CC1CCC(C(C)C)C(O)C1 (configuration not stated)
- maximum recommended daily dose (mmol/kg-bw/day) (TherapeuticCategory: topical antipruritic): 0.0128

SMILES: COc1cccc2c1C(=O)c1c(O)c3c(c(O)c1C2=O)C[C@@](O)(C(=O)CO)C[C@@H]3O[C@H]1C[C@H](N)[C@@H](O)[C@H](C)O1
- maximum recommended daily dose (mmol/kg-bw/day) [2]: 0.00447

SMILES: CN=C(NC#N)NCCSCc1nc[nH]c1C
- maximum recommended daily dose (mmol/kg-bw/day) (TherapeuticCategory: antiulcerative): 0.159

SMILES: O=C(CCCN1CC=C(n2c(=O)[nH]c3ccccc32)CC1)c1ccc(F)cc1
- maximum recommended daily dose (mmol/kg-bw/day) [4]: 0.000725

SMILES: CC(=O)OCC(=O)[C@@]1(O)CC[C@H]2[C@@H]3CCC4=CC(=O)C=C[C@]4(C)[C@H]3[C@@H](O)C[C@@]21C
- maximum recommended daily dose (mmol/kg-bw/day) [6]: 0.00827

SMILES: Cc1cc(/C=C/c2ccc3cc(N(C)C)ccc3[n+]2C)c(C)n1-c1ccccc1
- maximum recommended daily dose (mmol/kg-bw/day) (TherapeuticCategory: anthelmintic): 0.00434

SMILES: CC(=O)[C@]1(O)Cc2c(O)c3c(c(O)c2[C@@H](O[C@H]2C[C@H](N)[C@H](O)[C@H](C)O2)C1)C(=O)c1ccccc1C3=O
- maximum recommended daily dose (mmol/kg-bw/day) (TherapeuticCategory: antibacterial, antineoplastic): 0.00543

SMILES: OCC(O)CO
- maximum recommended daily dose (mmol/kg-bw/day) [1]: 10.8

SMILES: CC1=C(C(=O)O)N2C(=O)[C@@H](NC(=O)[C@H](N)c3ccc(O)cc3)[C@H]2SC1
- maximum recommended daily dose (mmol/kg-bw/day) [5]: 0.046

SMILES: CC(C)(C)NC[C@H](O)COc1ccccc1C1CCCC1
- maximum recommended daily dose (mmol/kg-bw/day) (TherapeuticCategory: antihypertensive, antianginal, antiarrhythmic): 0.00456

SMILES: C1CCN2C[C@@H]3C[C@@H](CN4CCCC[C@@H]34)[C@H]2C1
- maximum recommended daily dose (mmol/kg-bw/day) (TherapeuticCategory: oxytocic): 0.0427

SMILES: CN1C(=O)CCS(=O)(=O)C1c1ccc(Cl)cc1 (configuration not stated)
- maximum recommended daily dose (mmol/kg-bw/day) (TherapeuticCategory: anxiolytic, skeletal muscle relaxant): 0.0244

SMILES: C=C1/C(=C/C=C2/CCC[C@]3(C)[C@@H]([C@H](C)CCCC(C)C)CC[C@@H]23)C[C@@H](O)C[C@@H]1O
- maximum recommended daily dose (mmol/kg-bw/day) (TherapeuticCategory: vitamin D source): 7.49e-06

SMILES: CCN(CC)C(=O)Nc1ccc(OCC(O)CNC(C)(C)C)c(C(C)=O)c1 (configuration not stated)
- maximum recommended daily dose (mmol/kg-bw/day) [3]: 0.0176

SMILES: Cc1cc(C(=O)NNCc2ccccc2)no1
- maximum recommended daily dose (mmol/kg-bw/day) (TherapeuticCategory: antidepressant): 0.00432

SMILES: O=c1[nH]c2ccccc2n1C1CCN(CCCC(c2ccc(F)cc2)c2ccc(F)cc2)CC1
- maximum recommended daily dose (mmol/kg-bw/day) [4]: 0.000362

SMILES: CNC(C)[C@@H]1CC[C@@H](N)[C@@H](O[C@H]2[C@H](O)[C@@H](O[C@H]3OC[C@](C)(O)[C@H](NC)[C@H]3O)[C@H](N)C[C@@H]2N)O1 (some centres not stated)
- maximum recommended daily dose (mmol/kg-bw/day) [5]: 0.00628
